Test results as given in paper PMC8151276, “An Integrated Approach toward NanoBRET Tracers for Analysis of GPCR Ligand Engagement” (Molecules, 2021).
Values joined by “and” are separate entries in the source; they are usually repeats but may differ in a detail not shown here. Equal values may be shown once. Read-outs that look alike come from different tables or passages of the source.

How the values were obtained:
Type in all cases: binding
[1] = target: T1, AVPR1A (Homo sapiens, UniProt P37288); assay: NanoBRET screen HiBiT-AVPR1A in HEK293; settings: AVPR1A
T1 construct: purchased Promega (in-house HiBiT-GPCR construct library, NanoBRET)
T1 sequence (P37288 whole entry): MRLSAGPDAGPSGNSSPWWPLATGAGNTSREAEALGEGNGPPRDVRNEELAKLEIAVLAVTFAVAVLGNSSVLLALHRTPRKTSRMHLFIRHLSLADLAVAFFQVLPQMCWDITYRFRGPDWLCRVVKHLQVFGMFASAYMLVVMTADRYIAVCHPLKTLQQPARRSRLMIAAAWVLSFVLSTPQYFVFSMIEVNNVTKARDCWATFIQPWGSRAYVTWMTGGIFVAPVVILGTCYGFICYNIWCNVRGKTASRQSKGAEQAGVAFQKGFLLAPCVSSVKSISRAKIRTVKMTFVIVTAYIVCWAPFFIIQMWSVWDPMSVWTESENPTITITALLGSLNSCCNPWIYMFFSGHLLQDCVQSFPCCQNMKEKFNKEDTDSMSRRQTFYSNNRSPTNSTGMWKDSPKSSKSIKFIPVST
Procedure: Each tracer candidate was screened across the entire library of HiBiT-GPCR constructs using NanoBRET as the detection modality. As depicted in Figure 4A, the specificity of interactions was evaluated through decrease in BRET due to competitive displacement of a bound tracer by excess parental compound. Each tracer was analyzed for binding to each HiBiT-GPCR fusion in the absence and in the presence of competing parental compound. Briefly, HEK293 cells were transfected with HiBiT-GPCR constructs diluted into promoterless DNA to reduce expression and maximize translocation to the cell surface. Each tracer candidate was then screened at concentrations of 1 μM and 0.1 μM across cells expressing these fusions. Cells were treated for 1.5 h with tracer either alone or in the presence of 20 μM competing parental compound (i.e., control). BRET was measured upon addition of purified LgBiT and subsequent complementation with HiBiT genetically fused to a GPCR. The specificity of interactions was assessed through a decrease in BRET signal due to competitive displacement of the bound tracer. To further gauge the robustness of these interactions, the fold response over the control (i.e., BRETtracer/BRETcontrol) was calculated. We chose a 1.5-fold response, which translates to ≥7-fold signal over noise as the minimal threshold required to score an interaction as positive.
HiBiT-GPCR DNA constructs were diluted in 10 mM Tris pH 8 to a final concentration of 0.01 μg/μL, arrayed in 96-well plates and stored at −20 °C. For transfection, HEK293 cells were suspended in Opti-MEM (without phenol red) supplemented with 2% fetal bovine serum (Seradigm) and 100 units/mL penicillin–streptomycin (Gibco) at a final concentration of 220,000 cells/mL and dispensed into white 96-well plates at 90 μL/well. Subsequent transfections and screens were carried using an Agilent Bravo Automated Liquid Handling Platform. First, the 96-well HiBiT DNA arrays were diluted 25-fold in Opti-MEM (without serum or phenol red) to a final concentration of 0.0004 μg/μL and 20 μL of the diluted DNAs were transferred into new 96-well plates. Next, promoterless carrier DNA (1 μg/μL) was diluted 25-fold (0.04 μg/μL) and then dispensed into the diluted arrays at 20 μL/well. Following brief mixing, Viafect transfection reagent (Promega) diluted 16-fold into Opti-MEM was dispensed into the plates at 40 μL/well. After mixing by pipetting, plates were incubated for 10 min on the pipetting station deck. The DNA-transfection reagent complexes were then added to plates containing cells. To facilitate the screen, 10 μL of DNA-transfection reagent complexes were added in duplicates to the top 4 and bottom 4 rows, resulting in two identical 48-well arrays per plate. Plates with transfected cells were incubated for 18–20 h at 37 °C/5% CO2. A screen of each tracer across the entire library using two different concentrations requires duplicate plates of transfected cells. Depending on the number of tracers being screened, transfections can be scaled up using the same ratios. The next day, for each tracer, four 20× screening solutions in tracer dilution buffer (Promega) were prepared: two duplicates at final concentration of 20 μM and two duplicates at a final concentration of 2 μM. […] The four resulting solutions were diluted 4-fold in Opti-MEM without serum or phenol red to generate 5× solutions (5 µM and 0.5 µM tracer +/− 100 μM competing compound). To screen the library, a BioTek MultiFlo FX liquid dispenser was used to dispense 22.5 µL of tracer solution to the top 4 rows and 22.5 µL tracer + competing compound solution to the 4 bottom rows. Plates were briefly mixed on an orbital shaker and incubated for 1.5 h at room temperature. […] Plates were briefly mixed on an orbital shaker and incubated for 15 min to allow complementation.

[2] = target: T2, ADRA2B (Homo sapiens, UniProt P18089); assay: NanoBRET screen HiBiT-ADRA2B in HEK293; settings: ADRA2B
T2 construct: purchased Promega (in-house HiBiT-GPCR construct library, NanoBRET)
T2 sequence (P18089 1-450): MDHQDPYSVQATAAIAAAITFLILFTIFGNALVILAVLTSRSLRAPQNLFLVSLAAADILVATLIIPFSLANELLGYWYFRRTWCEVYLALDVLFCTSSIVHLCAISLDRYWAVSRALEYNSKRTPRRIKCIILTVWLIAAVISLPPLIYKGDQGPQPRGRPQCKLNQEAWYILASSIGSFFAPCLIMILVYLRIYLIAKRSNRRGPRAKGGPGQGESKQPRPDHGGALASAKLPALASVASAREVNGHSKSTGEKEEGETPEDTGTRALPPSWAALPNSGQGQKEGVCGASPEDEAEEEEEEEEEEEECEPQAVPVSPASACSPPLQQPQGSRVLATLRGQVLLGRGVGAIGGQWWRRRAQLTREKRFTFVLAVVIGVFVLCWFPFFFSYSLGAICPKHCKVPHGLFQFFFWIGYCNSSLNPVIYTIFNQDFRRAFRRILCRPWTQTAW

[3] = target: T3, HTR2A (Homo sapiens, UniProt P28223); assay: NanoBRET screen HiBiT-HTR2A in HEK293
T3 construct: purchased Promega (in-house HiBiT-GPCR construct library, NanoBRET)
T3 sequence (P28223 whole entry): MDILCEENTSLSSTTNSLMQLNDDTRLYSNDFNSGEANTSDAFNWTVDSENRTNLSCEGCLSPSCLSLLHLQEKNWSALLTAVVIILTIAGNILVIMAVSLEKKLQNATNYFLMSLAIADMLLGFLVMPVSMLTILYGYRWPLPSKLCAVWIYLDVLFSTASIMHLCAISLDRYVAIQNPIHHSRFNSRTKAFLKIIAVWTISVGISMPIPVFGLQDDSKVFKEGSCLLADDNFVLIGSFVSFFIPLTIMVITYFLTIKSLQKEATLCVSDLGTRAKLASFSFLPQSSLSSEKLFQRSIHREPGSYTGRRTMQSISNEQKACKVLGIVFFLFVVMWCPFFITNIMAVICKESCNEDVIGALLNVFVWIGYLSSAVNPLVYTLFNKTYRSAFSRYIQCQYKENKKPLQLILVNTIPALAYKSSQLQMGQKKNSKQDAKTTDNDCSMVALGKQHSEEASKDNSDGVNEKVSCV

Structure (SMILES)	NanoBRET Fold Response ([1]; tracer 0.1μM)	NanoBRET Fold Response ([1]; tracer 1μM)	NanoBRET Fold Response ([2]; tracer 0.1μM)	NanoBRET Fold Response ([2]; tracer 1μM)	NanoBRET Fold Response ([3]; HTR2A, tracer 0.1μM)	NanoBRET Fold Response ([3]; HTR2A, tracer 1μM)	NanoBRET Fold Response [3]	NanoBRET Fold Response ([1]; 0.1μM)	NanoBRET Fold Response ([1]; 1μM)	NanoBRET Fold Response ([2]; 0.1μM)	NanoBRET Fold Response ([2]; 1μM)	NanoBRET Fold Response ([3]; HTR2A, 0.1μM)	NanoBRET Fold Response ([3]; HTR2A, 1μM)
N#CN=C(NCCCOc1cccc(CN2CCCCC2)c1)NCCNC(=O)CCOCCOCCOCCOCCNC(=O)CCc1ccc2n1[B-](F)(F)[N+]1=C(c3ccc[nH]3)C=CC1=C2 [Aminopotentidine-2-NB590]	0.93	0.97	1.12	1.11	0.98	1.02							
COc1ccccc1N1CCN(CCCCN2C(=O)c3ccc(CNC(=O)CCOCCOCCOCCOCCNC(=O)CCc4ccc5n4[B-](F)(F)[N+]4=C(c6ccc[nH]6)C=CC4=C5)cc3C2=O)CC1 [NAN-190-2-NB590]	0.97	0.96	4.00	5.99			0.97						
O=C(CCOCCOCCOCCOCCNC(=O)CCc1ccc2n1[B-](F)(F)[N+]1=C(c3ccc[nH]3)C=CC1=C2)NCCCN1CCN(C2=Nc3ccccc3Oc3ccc(Cl)cc32)CC1 [Loxapine-a-2-NB590]	1.16	0.90	3.38	5.35			1.71 and 1.28						
CCCn1c(=O)c2[nH]c(-c3ccc(OCC(=O)NCCNC(=O)CCOCCNC(=O)c4ccc(CNC(=O)CCc5ccc6n5[B-](F)(F)[N+]5=C(c7ccc[nH]7)C=CC5=C6)cc4)cc3)nc2n(CCC)c1=O [XAC-3-NB590]	1.25	1.36	0.91	0.95	0.99	1.10							
CCOC(=O)c1cc(C#N)c(N2CCC(C(=O)NS(=O)(=O)Cc3ccccc3/C=C/C(=O)NCCNC(=O)CCc3ccc4n3[B-](F)(F)[N+]3=C(c5ccc[nH]5)C=CC3=C4)CC2)nc1C [AZD1283-1-NB590]								1.17	1.06	1.09	1.05	0.96	1.01
